Measurements: patent US8455475B2 (Gruenenthal GmbH, priority 2009, dated 2013)

Legend:
[1] = molecular target: T1, human B1R (bradykinin receptor 1) (Homo sapiens, UniProt P46663); experiment: FLIPR Ca2+ assay (Fluo-4) on CHO K1 cells stably transfected with the human B1R gene (hB1R cells): % inhibition at 10 μM / IC50, agonist Lys-Des-Arg9-bradykinin; type: cell-based; details: CHO-K1, human B1R
T1 construct: expressed in transfected cells; host or cells: CHO K1 cells
T1 sequence (P46663 1-353): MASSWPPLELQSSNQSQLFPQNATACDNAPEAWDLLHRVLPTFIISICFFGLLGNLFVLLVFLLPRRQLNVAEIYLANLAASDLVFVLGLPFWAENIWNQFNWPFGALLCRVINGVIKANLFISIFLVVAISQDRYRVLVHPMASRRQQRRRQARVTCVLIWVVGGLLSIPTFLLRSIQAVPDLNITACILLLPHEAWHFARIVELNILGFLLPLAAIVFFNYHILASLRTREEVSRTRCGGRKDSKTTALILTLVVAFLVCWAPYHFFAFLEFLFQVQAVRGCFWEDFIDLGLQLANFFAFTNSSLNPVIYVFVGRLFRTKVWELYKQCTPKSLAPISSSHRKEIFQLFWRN
Procedure, shortened: (§1)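 Peak fluorescence counts read on FLIPR (λex 488, λem 540 nm) after two additions: compound first, then agonist at EC80 after 10–20 min. Human line challenged with Lys-Des-Arg9-bradykinin, rat line with Des-Arg9-bradykinin. Suppression of Ca2+ inflow expressed as % of maximum inhibition.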

[2] = molecular target: T2, rat B1R (bradykinin receptor 1) (Rattus norvegicus, UniProt P97583); experiment: FLIPR Ca2+ assay (Fluo-4) on CHO K1 cells stably transfected with the B1R gene of the rat (rB1R cells): % inhibition at 10 μM / IC50, agonist Des-Arg9-bradykinin; type: cell-based; details: CHO-K1, rat B1R
T2 construct: expressed in transfected cells; host or cells: CHO K1 cells
T2 sequence (P97583 1-337): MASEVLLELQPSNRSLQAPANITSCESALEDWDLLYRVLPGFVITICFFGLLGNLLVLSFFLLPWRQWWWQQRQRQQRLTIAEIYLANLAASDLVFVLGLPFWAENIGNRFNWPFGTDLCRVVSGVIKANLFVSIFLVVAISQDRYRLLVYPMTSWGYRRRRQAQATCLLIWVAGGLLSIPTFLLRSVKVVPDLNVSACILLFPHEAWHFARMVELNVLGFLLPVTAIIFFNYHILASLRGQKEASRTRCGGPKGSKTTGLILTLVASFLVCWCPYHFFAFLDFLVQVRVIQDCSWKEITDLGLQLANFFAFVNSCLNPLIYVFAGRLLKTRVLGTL
Procedure, shortened: as §1

Structure (SMILES)	inhibition at 10 µM [1]	inhibition at 10 µM [2]
CC(C)(C(=O)N[C@@H]1CCc2ccc(C(=O)N3CCC4(CCN(c5ccncc5)CC4)C3)cc21)c1ccccc1Cl [Example H-146, 2-(2-Chlorophenyl)-2-methyl-N-[(1R)-6-(8-pyridin-4-yl-3,8-diazaspiro[4.5]decane-3-carbonyl)-2,3-dihydro-1H-inden-1-yl]-propionamide]	100%	102%
COc1ccc(S(=O)(=O)N[C@@H]2CCc3ccc(C(=O)N4CCC5(CCN(c6ccncc6)CC5)C4)cc32)c(C)c1 [Example H-147, 4-Methoxy-2-methyl-N-[(1R)-6-(8-pyridin-4-yl-3,8-diazaspiro[4.5]decane-3-carbonyl)-2,3-dihydro-1H-inden-1-yl]-benzenesulfonic acid amide]	100%	104%
O=C(c1ccc2c(c1)[C@H](NC(=O)C1(c3ccccc3Cl)CC1)CC2)N1CCC2(CCN(c3ccncc3)CC2)C1 [Example H-148, 1-(2-Chlorophenyl)-N-[(1R)-6-(8-pyridin-4-yl-3,8-diazaspiro[4.5]decane-3-carbonyl)-2,3-dihydro-1H-inden-1-yl]-cyclopropane-1-carboxylic acid amide]	100%	101%
O=C(c1ccc2c(c1)[C@H](NS(=O)(=O)c1c(Cl)cccc1C(F)(F)F)CC2)N1CCC2(CCN(c3ccncc3)CC2)C1 [Example H-149, 2-Chloro-N-[(1R)-6-(8-pyridin-4-yl-3,8-diazaspiro[4.5]decane-3-carbonyl)-2,3-dihydro-1H-inden-1-yl]-6-(trifluoromethyl)-benzenesulfonic acid amide]	100%	103%
O=C(c1ccc2c(c1)[C@H](NS(=O)(=O)Cc1ccccc1Cl)CC2)N1CCC2(CCN(c3ccncc3)CC2)C1 [Example H-150, 1-(2-Chlorophenyl)-N-[(1R)-6-(8-pyridin-4-yl-3,8-diazaspiro[4.5]decane-3-carbonyl)-2,3-dihydro-1H-inden-1-yl]-methanesulfonic acid amide]	97%	100%
O=C(Cc1ccccc1Cl)N[C@@H]1CCc2ccc(C(=O)N3CCC4(CCN(c5ccncc5)CC4)C3)cc21 [Example H-151, 2-(2-Chlorophenyl)-N-[(1R)-6-(8-pyridin-4-yl-3,8-diazaspiro[4.5]decane-3-carbonyl)-2,3-dihydro-1H-inden-1-yl]-acetamide]	99%	103%
O=C(Cc1ccccc1F)N[C@@H]1CCc2ccc(C(=O)N3CCC4(CCN(c5ccncc5)CC4)C3)cc21 [Example H-152, 2-(2-Fluorophenyl)-N-[(1R)-6-(8-pyridin-4-yl-3,8-diazaspiro[4.5]decane-3-carbonyl)-2,3-dihydro-1H-inden-1-yl]-acetamide]	99%	101%
O=C(N[C@@H]1CCc2ccc(C(=O)N3CCC4(CCN(c5ccncc5)CC4)C3)cc21)c1cccc(F)c1Cl [Example H-153, 2-Chloro-3-fluoro-N-[(1R)-6-(8-pyridin-4-yl-3,8-diazaspiro[4.5]decane-3-carbonyl)-2,3-dihydro-1H-inden-1-yl]-benzamide]	99%	105%
Cc1ccccc1CC(=O)N[C@@H]1CCc2ccc(C(=O)N3CCC4(CCN(c5ccncc5)CC4)C3)cc21 [Example H-154, 2-(o-Tolyl)-N-[(1R)-6-(8-pyridin-4-yl-3,8-diazaspiro[4.5]decane-3-carbonyl)-2,3-dihydro-1H-inden-1-yl]-acetamide]	99%	105%
O=C(N[C@H]1CCc2cc(C(=O)N3CCC4(CCN(c5ccncc5)CC4)C3)ccc21)c1ccccc1Cl [Example H-155]	87%	100%
O=C(N[C@H]1CCc2cc(C(=O)N3CCC4(CC3)CCN(c3ccncc3)CC4)ccc21)c1ccccc1Cl [Example H-156, 2-Chloro-N-[(1S)-5-(9-pyridin-4-yl-3,9-diazaspiro[5.5]undecane-3-carbonyl)-2,3-dihydro-1H-inden-1-yl]-benzamide]	24%	75%
O=C(c1ccc2c(c1)CC[C@@H]2N1Cc2cccc(Cl)c2C1=O)N1CCC2(CCN(c3ccncc3)CC2)C1 [Example H-157]	100%	98%
O=C(c1ccc2c(c1)CC[C@@H]2N1Cc2cccc(Cl)c2C1=O)N1CCC2(CC1)CCN(c1ccncc1)CC2 [Example H-158, 7-Chloro-2-[(1S)-5-(9-pyridin-4-yl-3,9-diazaspiro[5.5]undecane-3-carbonyl)-2,3-dihydro-1H-inden-1-yl]-2,3-dihydro-isoindol-1-one]	92%	100%
O=C(c1ccc2c(c1)CC[C@H]2N1Cc2cccc(Cl)c2C1=O)N1CCC2(CC1)CCN(c1ccncc1)CC2 [Example H-159, 7-Chloro-2-[(1R)-5-(9-pyridin-4-yl-3,9-diazaspiro[5.5]undecane-3-carobnyl)-2,3-dihydro-1H-inden-1-yl]-2,3-dihydro-isoindol-1-one]	98%	103%
O=C(c1ccc2c(c1)CC[C@H]2N1Cc2cccc(Cl)c2C1=O)N1CCC2(CCN(c3ccncc3)CC2)C1 [Example H-160]	98%	105%
O=C(N[C@H]1CCc2c(C(=O)N3CCC4(CCN(c5ccncc5)CC4)C3)cccc21)c1ccccc1Cl [Example H-161, 2-Chloro-N-[(1S)-4-(8-pyridin-4-yl-3,8-diazaspiro[4.5]decane-3-carbonyl)-2,3-dihydro-1H-inden-1-yl]-benzamide]	89%	104%
O=C(N[C@@H]1CCc2c(C(=O)N3CCC4(CCN(c5ccncc5)CC4)C3)cccc21)c1ccccc1Cl [Example H-162, 2-Chloro-N-[(1R)-4-(8-pyridin-4-yl-3,8-diazaspiro[4.5]decane-3-carbonyl)-2,3-dihydro-1H-inden-1-yl]-benzamide]	13%	61%
O=C(N[C@H]1CCc2c(C(=O)N3CCC4(CC3)CCN(c3ccncc3)CC4)cccc21)c1ccccc1Cl [Example H-163, 2-Chloro-N-[(1S)-4-(9-pyridin-4-yl-3,9-diazaspiro[5.5]undecane-3-carbonyl)-2,3-dihydro-1H-inden-1-yl]-benzamide]	63%	105%
O=C(N[C@@H]1CCc2c(C(=O)N3CCC4(CC3)CCN(c3ccncc3)CC4)cccc21)c1ccccc1Cl [Example H-164, 2-Chloro-N-[(1R)-4-(9-pyridin-4-yl-3,9-diazaspiro[5.5]undecane-3-carbonyl)-2,3-dihydro-1H-inden-1-yl]-benzamide]	25%	77%
O=C(c1cccc2c1CC[C@@H]2NS(=O)(=O)c1ccccc1Cl)N1CCC2(CCN(c3ccncc3)CC2)C1 [Example H-165, 2-Chloro-N-[(1S)-4-(8-pyridin-4-yl-3,8-diazaspiro[4.5]decane-3-carbonyl)-2,3-dihydro-1H-inden-1-yl]-benzenesulfonic acid amide]	44%	44%
O=C(c1cccc2c1CC[C@H]2NS(=O)(=O)c1ccccc1Cl)N1CCC2(CCN(c3ccncc3)CC2)C1 [Example H-166, 2-Chloro-N-[(1R)-4-(8-pyridin-4-yl-3,8-diazaspiro[4.5]decane-3-carbonyl)-2,3-dihydro-1H-inden-1-yl]-benzenesulfonic acid amide]	21%	-4%
